Here are results for nine molecules from patent publication US20090008238A1, “TRANSPORTABLE GAS STERILIZATION UNIT, DISPOSABLE GAS GENERATOR, LIGHT ACTIVATED ANTI-INFECTIVE COATING AND METHOD OF DISINFECTION AND STERILIZATION USING CHLORINE DIOXIDE” (THE ARIZONA BD OF REG ON BEHALF OF THE UNIV OF AZ, priority 2004, published 2009).

The subject of one data set is E. coli. The conditions noted are these: 2.5 minute exposure; cited from earlier work.
In the next data set the test system is MRSA. The conditions noted are these: 2.5 minute exposure; cited from earlier work.
The next data set has as its system S. aureus. The following applies: 2.5 minute exposure; cited from earlier work.
The subject of a further data set is A. niger. The following applies: 2.5 minute exposure; cited from earlier work.
The next data set deals with B. subtilis (spore). The following applies: 2.5 minute exposure; cited from earlier work.
The subject of a further data set is Simian, Rotavirus SA11. The following applies: pH 10; cited from earlier work.
For a further data set, the system named is red blood cell. The conditions noted are these: cited from earlier work.
For data set [1] the following is noted: drank solution, up to a concentration of 24 ppm; cited from earlier work.
The conditions of data set [2]: concentrations up to 100 ppm, in drinking, as well as via the skin route; cited from earlier work.
The subject of data set [3] is Bacillus subtilis var. niger spores. Kind of data set: sporicidal effects of gas phase ClO2 on inoculated washers. In kind it is cell-based. Details: key to Sterility (Day 14): Yes indicates no turbidity was observed, sample is sterile.; No indicates turbidity observed, sample is not sterile. The following applies: 4 hours; for Log Reduction: versus average of 2D and 2E. As for the experimental part:
Sterile washers were inoculated with 1.4×10^7 Bacillus subtilis var. niger spores and allowed to dry overnight. Solutions were prepared in sterile jars to obtain different chlorine dioxide levels. Five washers were suspended in each jar and exposed to one chlorine dioxide concentration for 4 hours in the dark. Two washers from each chlorine dioxide level were enumerated for log reduction and three washers from each chlorine dioxide concentration were analyzed for sterility. Log reduction samples were analyzed by placing one washer into 10 ml sterile Difco DE Neutralizing Broth, shaking for approximately 30 seconds and spread plating, in duplicate, onto Difco Trypticase Soy agar plates incubated at 35° C. for 48 hours. Sterility was determined by placing one washer in 50 ml sterile Difco Trypticase Soy Broth incubated at 35° C. for 14 days and visually checked daily for turbidity. Appropriate positive and negative controls were run with test samples.

The conditions of data set [4]: relative to hypochlorite; cited from earlier work.
The conditions of data set [5]: low concentrations (20 mg/L) of gas; cited from earlier work.

“And” between values parts separate entries of the source, which are not always exact repeats. Equal values may be shown once.

Turning to `Oc1ccccc1` [PN, Phenol], in the data set with E. coli, the “minimum bactericidal concentration, E. coli” value is on record as 10,000 ppm. Besides, the “minimum bactericidal concentration, MRSA” value in the data set on MRSA was >10,000 ppm. Moreover, in the data set with S. aureus, the “minimum bactericidal concentration, S. aureus” value is reported as >10,000 ppm. Further, in the data set with A. niger, the “minimum bactericidal concentration, A. niger” value is >10,000 ppm. The “minimum bactericidal concentration, B. subtilis (spore)” value in the data set on B. subtilis (spore) is given as >10,000 ppm.
As for `OCl` [SH, Sodium hypochlorite], in the data set on E. coli, the “minimum bactericidal concentration, E. coli” value is recorded as 10 ppm. Besides, the “minimum bactericidal concentration, MRSA” value in the data set with MRSA is 10 ppm. Also, in the data set with S. aureus, the “minimum bactericidal concentration, S. aureus” value was 10 ppm. Moreover, the “minimum bactericidal concentration, A. niger” value with A. niger is 1,000 ppm. In addition, the “minimum bactericidal concentration, B. subtilis (spore)” value in the data set with B. subtilis (spore) is recorded as >1,000 ppm.
Consider `O=CCCCC=O` [GA, Glutaraldehyde], for which the “minimum bactericidal concentration, E. coli” value with E. coli is 100,000 ppm. Besides, the “minimum bactericidal concentration, MRSA” value in the data set with MRSA is reported as 100,000 ppm. In addition, the “minimum bactericidal concentration, S. aureus” value in the data set on S. aureus was 100,000 ppm. In addition, in the data set with A. niger, the “minimum bactericidal concentration, A. niger” value is recorded as 100,000 ppm. For the same molecule, in the data set with B. subtilis (spore), the “minimum bactericidal concentration, B. subtilis (spore)” value is 100,000 ppm.
`[O][Cl+][O-]` [Chlorine Dioxide]: in the data set with Simian, Rotavirus SA11, the “time to good antiviral activity” value was “less than 15 seconds”. Also, the hematological changes entry in the data set with red blood cell (rats fed up to 1000 mg/l chronically for 6 months) is “no significant hematological changes”. Moreover, the “red blood cell counts, hematocrit and hemoglobin” value in the data set on red blood cell (rats, after 9 months, all treatment groups) is listed as “decreased”. Moreover, the “adverse effects in human volunteers” value in data set [1] is “no adverse effects”. Also, the “minimum bactericidal concentration, E. coli” value with E. coli is 1 ppm. Besides, the “fetal malformation or birth defects” value in data set [2] was “no evidence of fetal malformation or birth defects”. Also, the “CFU/ml Recovered Bacillus subtilis var. niger” value in data set [3] (50 ppm gas phase) was 50,000 CFU/ml and 73,000 CFU/ml; in data set [3] (200 ppm gas phase) it was less than 1 CFU/ml; in data set [3] (300 ppm gas phase), less than 1 CFU/ml; in data set [3] (400 ppm gas phase), less than 1 CFU/ml. The “Sterility (Day 14)” value in [3] (50 ppm gas phase) is reported as “No”; in [3] (100 ppm gas phase), “Yes”; in [3] (200 ppm gas phase), “Yes”; in data set [3] (300 ppm gas phase), “Yes”; in data set [3] (400 ppm gas phase), “Yes”. In addition, the “Log Reduction” value was 2.30 and 2.13 in data set [3] (50 ppm gas phase); greater than 6 in data set [3] (100 ppm gas phase); greater than 6.99 in data set [3] (200 ppm gas phase); greater than 6.99 in data set [3] (300 ppm gas phase); greater than 6.99 in data set [3] (400 ppm gas phase). Besides, in the data set on MRSA, the “minimum bactericidal concentration, MRSA” value was 1 ppm. In the data set on S. aureus, the “minimum bactericidal concentration, S. aureus” value is given as 1 ppm. In addition, the “half-life for the elimination from the plasma” value in [4] is given as “less than half that of hypochlorite”. For the same molecule, the “minimum bactericidal concentration, A. niger” value in the data set on A. niger is 10 ppm. In the data set with B. subtilis (spore), the “minimum bactericidal concentration, B. subtilis (spore)” value is 100 ppm. For the same molecule, the sterilant effectiveness result in data set [5] is “effective sterilant”.
For `CCO` [EtOH, Absolute Ethyl Alcohol], the “minimum bactericidal concentration, E. coli” value with E. coli is on record as 500,000 ppm. Moreover, the “minimum bactericidal concentration, MRSA” value in the data set with MRSA is 500,000 ppm. In addition, in the data set with S. aureus, the “minimum bactericidal concentration, S. aureus” value is reported as 500,000 ppm. The “minimum bactericidal concentration, A. niger” value with A. niger was 500,000 ppm. Further, the “minimum bactericidal concentration, B. subtilis (spore)” value in the data set on B. subtilis (spore) is 500,000 ppm.
As for Providone iodine [PVP-I], the “minimum bactericidal concentration, E. coli” value in the data set with E. coli is on record as 10 ppm. The “minimum bactericidal concentration, MRSA” value with MRSA is listed as 100 ppm. For the same molecule, in the data set on S. aureus, the “minimum bactericidal concentration, S. aureus” value was 100 ppm. Besides, in the data set with A. niger, the “minimum bactericidal concentration, A. niger” value is 1,000 ppm. In the data set with B. subtilis (spore), the “minimum bactericidal concentration, B. subtilis (spore)” value was >1,000 ppm.
Benzalkonium chloride [BAC]: the “minimum bactericidal concentration, E. coli” value in the data set on E. coli is reported as 100 ppm. In the data set on MRSA, the “minimum bactericidal concentration, MRSA” value was 100 ppm. Further, in the data set with S. aureus, the “minimum bactericidal concentration, S. aureus” value is 10 ppm. Further, the “minimum bactericidal concentration, A. niger” value in the data set on A. niger was 10,000 ppm. Besides, the “minimum bactericidal concentration, B. subtilis (spore)” value in the data set on B. subtilis (spore) was 1,000 ppm.
With `N=C(NCCCCCCNC(=N)NC(=N)Nc1ccc(Cl)cc1)NC(=N)Nc1ccc(Cl)cc1.O=C(O)[C@H](O)[C@@H](O)[C@H](O)[C@H](O)CO.O=C(O)[C@H](O)[C@@H](O)[C@H](O)[C@H](O)CO` [CHG, Chlorhexidine digluconate], in the data set on E. coli, the “minimum bactericidal concentration, E. coli” value is listed as 100 ppm. Besides, the “minimum bactericidal concentration, MRSA” value in the data set with MRSA is 1,000 ppm. In addition, the “minimum bactericidal concentration, S. aureus” value with S. aureus is recorded as 10 ppm. Also, the “minimum bactericidal concentration, A. niger” value in the data set on A. niger is listed as >10,000 ppm. The “minimum bactericidal concentration, B. subtilis (spore)” value in the data set with B. subtilis (spore) is 1,000 ppm.
For `[O-][Cl+]O` [chlorite ions], the “adverse effects in human volunteers” value in [1] was “no adverse effects”. Also, the “half-life for the elimination from the plasma” value in data set [4] is on record as “less than half that of hypochlorite”.
